The results in this text go back to PubChem BioAssay AID608 (Sanford-Burnham Center for Chemical Genomics, 2007).

Calls of active or inactive are those of the source. No rule for the calls is given here.

Chain of Peptidyl-prolyl cis-trans isomerase FKBP1A (Homo sapiens) (P62942 whole entry, looked up): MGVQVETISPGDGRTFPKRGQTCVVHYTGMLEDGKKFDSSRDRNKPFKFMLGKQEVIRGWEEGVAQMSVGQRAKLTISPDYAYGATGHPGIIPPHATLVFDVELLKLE

This test has as its target Peptidyl-prolyl cis-trans isomerase FKBP1A (Homo sapiens) (UniProt P62942). Kind of test: FKBP12 binders, biophysical, NMR detection (AID 608). The settings on record: NMR binding, purified FKBP12.
As to `S=C(NCC1CCCO1)NC1CC1` (configuration not stated), the Kd was > 4 mM (inactive).
For `O=c1sc2ccccc2n1CN1CCOCC1`, the Kd is > 4 mM (inactive).
The same measure for `O=C(O)c1ccc(-c2cccs2)s1`: > 4 mM (inactive).
With `Cn1c(CSc2nc3ccccc3s2)n[nH]c1=S` the figure was > 4 mM (inactive); with `COc1cc2c3cc1Oc1c(OC)c(OC)cc4c1[C@@H](Cc1cccc(c1)Oc1ccc(c(O)c1)C[C@@H]3N(C)CC2)N(C)CC4`, > 4 mM (inactive).
On to `COCCn1cnc2cc(C)c(C)cc21`, for which the Kd was > 4 mM (inactive).
The same measure for `NCCc1c[nH]c2ccccc12`: > 4 mM (inactive); for `O=C(Nc1cccnc1)c1c(F)c(F)c(F)c(F)c1F`: > 4 mM (inactive); for `O=C1N=C(N2CCOCC2)S/C1=C\c1cccnc1`: > 4 mM (inactive).
In the case of `COc1ccc(-c2oc3cc(O[C@H]4O[C@H](CO)[C@@H](O)[C@H](O)[C@H]4O)c(OC)c(O)c3c(=O)c2OC)cc1O`, the Kd was > 4 mM (inactive).
With `Cc1cc[n+](-c2nc([O-])sc2C=O)cc1`, the Kd was > 4 mM (inactive).
As for `NC(=S)NC(=O)CN1C(=O)c2ccccc2C1=O`, the Kd is > 4 mM (inactive).
On to `CSc1nc(-c2ccccc2)ccc1C(N)=O`, for which the Kd is > 4 mM (inactive).
The same measure for `Cc1ccn(S(=O)(=O)c2ccc(C(C)(C)C)cc2)n1`: > 4 mM (inactive); for `COc1ccc2c(c1)OCC(Cc1ccc(OC)c(OC)c1)C2=O` (configuration not stated): > 4 mM (inactive).
The same measure for `Oc1ccccc1N1CCOCC1`: > 4 mM (inactive); for `Cc1cc(Cl)ccc1OC(C)C(=O)N1CCOCC1` (configuration not stated): “inactive”; for `CC1(C)Cc2c(C#N)c(N)n(-c3ccccc3)c(=O)c2CO1`: > 4 mM (inactive).
On to `CC1(c2ccncc2)NC(=O)NC1=O` (configuration not stated), for which the Kd is > 4 mM (inactive).
With `Cc1cc(N2C(=O)CCC2=O)n(-c2ccccc2)n1`, the Kd was > 4 mM (inactive).
The same measure for `Cc1nnsc1C(=O)Nc1ccccn1`: > 4 mM (inactive); for `Cc1nn2c(nc1=O)SCC(c1ccccc1)=N2`: > 4 mM (inactive).
The same measure for `O=c1[nH]cc(COCc2ccccc2)c(=O)[nH]1`: > 4 mM (inactive); for `c1ccc(-c2nsc(N3CCNCC3)n2)cc1`: > 4 mM (inactive).
The same measure for `Cc1occc1C(=O)Nc1ccc(C(N)=O)cc1`: > 4 mM (inactive).
For `C[C@H]1C[C@@H](O)[C@]2(O)[C@@]13CC(=O)OC[C@@]2(C)[C@](C)(O)C(=O)C3`, the Kd is > 4 mM (inactive).
With `N=c1c2c3c(sc2ncn1N)CCCC3` the figure was > 4 mM (inactive).
The same measure for `Cc1noc(C)c1C(=O)NCc1cccs1`: > 4 mM (inactive); for `Nc1c(Nc2ccccc2)c2ccccc2oc1=O`: > 4 mM (inactive); for `Cc1cccc(CO)n1`: > 4 mM (inactive).
Turning to `CN(C)C(=O)c1ccc(-c2n[nH]c(=O)c3ccccc23)cc1`, the Kd was > 4 mM (inactive).
For `O=C(Nc1cccnc1)Nc1ccc2c(c1)OCO2`, the Kd is > 4 mM (inactive).
Consider `Cc1cc(NC(=O)c2ccc3c(c2)OCO3)no1`, for which the Kd was > 4 mM (inactive).
Take `CC1CN(Cc2ccccn2)CCC1=O` (configuration not stated): the Kd was > 4 mM (inactive).
With `c1cncc(-c2nnc(-c3cccnc3)nn2)c1` the figure was > 4 mM (inactive); with `O=C(Nc1cccnc1)c1ccc(Br)s1`, > 4 mM (inactive); with `Cc1cc(C(=O)NN2CCOCC2)c(C)o1`, > 4 mM (inactive).
As for `O=C(O)c1cccnc1Oc1ccccc1`, the Kd is > 4 mM (inactive).
As to `O=c1[nH]c2sc3c(c2c2nncn12)CCCC3`, the Kd is > 4 mM (inactive).
With `CN1CCN(S(=O)(=O)c2ccc(=O)[nH]c2)CC1` the figure was > 4 mM (inactive).
With `COc1ccc(NC(=O)c2ccc[n+]([O-])c2)cc1`, the Kd is > 4 mM (inactive).
Regarding `O=C(NCCCSc1ncccn1)Nc1ncccn1`, the Kd was > 4 mM (inactive).
Regarding `Cc1cc(C(=O)NC2=NCCS2)cs1`, the Kd was > 4 mM (inactive).
Take `O=[N+]([O-])c1ccc(NS(=O)(=O)N2CCCCC2)cc1`: the Kd was 0.06 mM.
The same measure for `[O-][n+]1c2ccccc2[n+]([O-])c2cc(O)ccc21`: > 4 mM (inactive).
For `Cc1cccn2cc(CNc3ccccc3)nc12`, the Kd was > 4 mM (inactive).
Take `Fc1cc2nccnc2cc1N1CCSCC1`: the Kd was > 4 mM (inactive).
The same measure for `CC1(C)Cc2c(c(-c3ccco3)[nH]c(=O)c2C#N)CO1`: > 4 mM (inactive); for `CCN1CC2(C)CC[C@H](OC)[C@]34C2[C@H](O)C2(OCO[C@@]25C[C@H](OC)[C@H]2C[C@]3(O)C5[C@H]2O)C14`: > 4 mM (inactive); for `CC(=O)OC[C@@]1(O)C[C@@]23CCC4c5ccoc5CC[C@]4(C)C2CC[C@@H]1C3` (some centres not stated): > 4 mM (inactive).
With `O=C(CCc1ccc(O)cc1)c1c(O)cc(O)cc1O` the figure was > 4 mM (inactive).
In the case of `Cc1ccc(-c2nc(-c3cccnc3)no2)c(C)c1`, the Kd is > 4 mM (inactive).
With `Nc1cc(=O)[nH]c(=S)n1-c1cccc(C(F)(F)F)c1` the figure was > 4 mM (inactive); with `O=C(O)Cn1cc(C(=O)C2CC2)c2ccccc21`, > 4 mM (inactive); with `Cc1nn(-c2ccccc2)nc1C(N)=O`, > 4 mM (inactive).
The same measure for `CC1CC[C@]2(NC1)O[C@H]1CC3C4CC[C@H]5C[C@@H](O)CC[C@]5(C)C4CC[C@]3(C)[C@H]1[C@@H]2C` (some centres not stated): > 4 mM (inactive).
The same measure for `NCc1ccc2c(c1)OCO2`: > 4 mM (inactive); for `Cc1cc(C(=O)N2CCN(c3ncccn3)CC2)c(C)o1`: > 4 mM (inactive).
With `S=c1[nH]nc(-c2cccnc2)n1C1CCCCC1`, the Kd is > 4 mM (inactive).
Regarding `CCN1C(=O)c2cccc3c(S(N)(=O)=O)ccc1c23`, the Kd is > 4 mM (inactive).
With `CC(=O)OC[C@H]1O[C@@H](Oc2cc(OC(C)=O)c3c(=O)cc(-c4ccc(OC(C)=O)cc4)oc3c2)[C@H](OC(C)=O)[C@@H](OC(C)=O)[C@@H]1OC(C)=O` the figure was > 4 mM (inactive).
With `Cc1nccc2c1[nH]c1ccccc12`, the Kd is > 4 mM (inactive).
The same measure for `CSc1ccc(C(=S)N2CCN(C)CC2)cc1`: > 4 mM (inactive); for `CN1CCN(C(=O)c2ccccc2N)CC1`: > 4 mM (inactive); for `CC(=O)Oc1c(C)cc(O)c2ccccc12`: > 4 mM (inactive).
With `NCc1ccc(CN2CCOCC2)cc1` the figure was > 4 mM (inactive); with `CON(C)C(=O)Nc1ccc(Cl)cc1`, > 4 mM (inactive); with `O=S(=O)(Nc1cc(Cl)cc(Cl)c1)N1CCOCC1`, “inactive”.
As to `CCCC(=O)N1CCSCC1`, the Kd was > 4 mM (inactive).
For `O=C1C=C(Nc2ccc(O)cc2)c2ccccc2C1=O`, the Kd is > 4 mM (inactive).
As for `O=C(NC1CCS(=O)(=O)C1)c1cccs1` (configuration not stated), the Kd is > 4 mM (inactive).
The same measure for `CC(C)(C)CC(=O)NNC(=O)c1cnccn1`: > 4 mM (inactive); for `CCOc1ccc(C(=O)c2ccc(O)c(O)c2O)cc1`: > 4 mM (inactive).
With `CN1CCN(c2ncnc3nc[nH]c23)CC1` the figure was > 4 mM (inactive); with `Nc1nc(=S)n2c(n1)oc1ccccc12`, > 4 mM (inactive); with `COc1cccc(-c2csc(NC(C)=O)n2)c1`, > 4 mM (inactive).
For `O=C(O)c1cc2ccccc2o1`, the Kd was > 4 mM (inactive).
As for `O=C1C=CC(=O)N1c1ccc(N2CCOCC2)cc1`, the Kd is > 4 mM (inactive).
The same measure for `O=C(/C=C1\SC(=O)NC1=O)NCc1ccccc1`: > 4 mM (inactive); for `Cc1ccc(S(=O)(=O)CC(=O)N2CCCC2)cc1`: > 4 mM (inactive); for `COc1c(O)cc(O)cc1O`: > 4 mM (inactive).
With `COc1ccc(-c2cn[nH]c2N)c(OC)c1` the figure was > 4 mM (inactive); with `Cn1nc(C(=O)Nc2cccnc2)c2ccccc2c1=O`, > 4 mM (inactive); with `Cc1ccc(N2C(=O)CC(Sc3ncn[nH]3)C2=O)cc1` (configuration not stated), > 4 mM (inactive).
With `O=C(NCc1cccs1)c1nc2ncccn2n1` the figure was > 4 mM (inactive).
Turning to `c1ccc(CN2CCC3(CC2)Nc2ccccc2CO3)cc1`, the Kd was > 4 mM (inactive).
The same measure for `O=C1CC(NCc2ccco2)C(=O)NN1` (configuration not stated): > 4 mM (inactive); for `CCc1ccc(/C=N/n2cnnc2)cc1`: > 4 mM (inactive); for `NC(=O)Cn1nnc(-c2ccc(C(F)(F)F)cc2)n1`: > 4 mM (inactive).
With `C=C(C)[C@@H]1CC[C@]2(CO)CC[C@]3(C)[C@H](CCC4[C@@]5(C)CC[C@H](O)C(C)(C)C5CC[C@]43C)C12` (some centres not stated) the figure was > 4 mM (inactive); with `COc1ccc(NC2=NCC(C)S2)cc1` (configuration not stated), > 4 mM (inactive); with `O=C1CS/C(=N/S(=O)(=O)c2ccccc2)N1`, > 4 mM (inactive).
Regarding `OCc1csc(-c2cccs2)n1`, the Kd was > 4 mM (inactive).
`COc1ccc2c(c1)OC[C@@H](Cc1ccc(OC)c(OC)c1)[C@H]2O`: the Kd was > 4 mM (inactive).
On to `CC(N)C(=O)c1ccco1` (configuration not stated), for which the Kd is > 4 mM (inactive).
With `O=C(O)C12CC3CC(CC(O)(C3)C1)C2` the figure was > 4 mM (inactive); with `COc1ccccc1CNc1nc2nc(C)cc(=O)n2[nH]1`, > 4 mM (inactive).
In the case of `O=C(O)c1ccc(CSc2ncn[nH]2)cc1`, the Kd is > 4 mM (inactive).
As for `O=C(NCc1cccc(Cl)c1)c1cccnc1`, the Kd was > 4 mM (inactive).
In the case of `Cc1cc(NC(=O)CS(=O)(=O)c2ccccc2)no1`, the Kd was > 4 mM (inactive).
With `O=C(c1nc2ncccn2n1)N1CCc2ccccc2C1`, the Kd is > 4 mM (inactive).
On to `O=C(O)c1ccc(N2CCCCC2)cc1`, for which the Kd was > 4 mM (inactive).
